For the experiment, the target named is Homo sapiens butyrylcholinesterase (hBuChE) (Homo sapiens, UniProt P06276). The experiment is described as follows: Inhibition of hBuChE (Ellman assay, 4PL dose-response). For orientation: In Ellman's method for cholinesterases, released thiocholine reacts with DTNB.

One compound from paper PMC6151500 (Molecules : A Journal of Synthetic Chemistry and Natural …, 2017) can be followed below.

Homo sapiens butyrylcholinesterase (hBuChE), sequence (P06276 29-602): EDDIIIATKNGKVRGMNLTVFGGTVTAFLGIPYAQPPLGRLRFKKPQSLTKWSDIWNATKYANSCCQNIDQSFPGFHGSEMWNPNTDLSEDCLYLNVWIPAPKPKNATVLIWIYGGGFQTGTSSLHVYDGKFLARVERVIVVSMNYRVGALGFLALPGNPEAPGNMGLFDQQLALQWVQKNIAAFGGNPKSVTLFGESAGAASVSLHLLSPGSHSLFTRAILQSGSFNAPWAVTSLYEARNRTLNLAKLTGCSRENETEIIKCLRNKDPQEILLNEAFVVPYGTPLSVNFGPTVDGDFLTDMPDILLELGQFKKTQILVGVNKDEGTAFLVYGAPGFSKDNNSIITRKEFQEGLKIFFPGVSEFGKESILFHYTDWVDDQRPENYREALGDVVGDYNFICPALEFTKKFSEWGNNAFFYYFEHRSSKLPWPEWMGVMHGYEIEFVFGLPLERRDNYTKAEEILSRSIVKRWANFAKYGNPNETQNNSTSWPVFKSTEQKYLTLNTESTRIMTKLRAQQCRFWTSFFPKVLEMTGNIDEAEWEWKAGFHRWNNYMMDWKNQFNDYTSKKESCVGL

In the case of `CN(C)c1ccc(C(=C2C=CC(=[N+](C)C)C=C2)c2ccc(N(C)C)cc2)cc1` [CV, tris(4-(dimethylamino)phenyl)methylium chloride], inhibition was half-maximal at 900 nM (IC50).
